{"source": "paper PMC4956396", "about": "(Molecular Pain, 2016)", "key": {"Cav3.3": {"target": "Cav3.3 (Homo sapiens, UniProt Q9P0X4)", "sequence (Q9P0X4 whole entry)": "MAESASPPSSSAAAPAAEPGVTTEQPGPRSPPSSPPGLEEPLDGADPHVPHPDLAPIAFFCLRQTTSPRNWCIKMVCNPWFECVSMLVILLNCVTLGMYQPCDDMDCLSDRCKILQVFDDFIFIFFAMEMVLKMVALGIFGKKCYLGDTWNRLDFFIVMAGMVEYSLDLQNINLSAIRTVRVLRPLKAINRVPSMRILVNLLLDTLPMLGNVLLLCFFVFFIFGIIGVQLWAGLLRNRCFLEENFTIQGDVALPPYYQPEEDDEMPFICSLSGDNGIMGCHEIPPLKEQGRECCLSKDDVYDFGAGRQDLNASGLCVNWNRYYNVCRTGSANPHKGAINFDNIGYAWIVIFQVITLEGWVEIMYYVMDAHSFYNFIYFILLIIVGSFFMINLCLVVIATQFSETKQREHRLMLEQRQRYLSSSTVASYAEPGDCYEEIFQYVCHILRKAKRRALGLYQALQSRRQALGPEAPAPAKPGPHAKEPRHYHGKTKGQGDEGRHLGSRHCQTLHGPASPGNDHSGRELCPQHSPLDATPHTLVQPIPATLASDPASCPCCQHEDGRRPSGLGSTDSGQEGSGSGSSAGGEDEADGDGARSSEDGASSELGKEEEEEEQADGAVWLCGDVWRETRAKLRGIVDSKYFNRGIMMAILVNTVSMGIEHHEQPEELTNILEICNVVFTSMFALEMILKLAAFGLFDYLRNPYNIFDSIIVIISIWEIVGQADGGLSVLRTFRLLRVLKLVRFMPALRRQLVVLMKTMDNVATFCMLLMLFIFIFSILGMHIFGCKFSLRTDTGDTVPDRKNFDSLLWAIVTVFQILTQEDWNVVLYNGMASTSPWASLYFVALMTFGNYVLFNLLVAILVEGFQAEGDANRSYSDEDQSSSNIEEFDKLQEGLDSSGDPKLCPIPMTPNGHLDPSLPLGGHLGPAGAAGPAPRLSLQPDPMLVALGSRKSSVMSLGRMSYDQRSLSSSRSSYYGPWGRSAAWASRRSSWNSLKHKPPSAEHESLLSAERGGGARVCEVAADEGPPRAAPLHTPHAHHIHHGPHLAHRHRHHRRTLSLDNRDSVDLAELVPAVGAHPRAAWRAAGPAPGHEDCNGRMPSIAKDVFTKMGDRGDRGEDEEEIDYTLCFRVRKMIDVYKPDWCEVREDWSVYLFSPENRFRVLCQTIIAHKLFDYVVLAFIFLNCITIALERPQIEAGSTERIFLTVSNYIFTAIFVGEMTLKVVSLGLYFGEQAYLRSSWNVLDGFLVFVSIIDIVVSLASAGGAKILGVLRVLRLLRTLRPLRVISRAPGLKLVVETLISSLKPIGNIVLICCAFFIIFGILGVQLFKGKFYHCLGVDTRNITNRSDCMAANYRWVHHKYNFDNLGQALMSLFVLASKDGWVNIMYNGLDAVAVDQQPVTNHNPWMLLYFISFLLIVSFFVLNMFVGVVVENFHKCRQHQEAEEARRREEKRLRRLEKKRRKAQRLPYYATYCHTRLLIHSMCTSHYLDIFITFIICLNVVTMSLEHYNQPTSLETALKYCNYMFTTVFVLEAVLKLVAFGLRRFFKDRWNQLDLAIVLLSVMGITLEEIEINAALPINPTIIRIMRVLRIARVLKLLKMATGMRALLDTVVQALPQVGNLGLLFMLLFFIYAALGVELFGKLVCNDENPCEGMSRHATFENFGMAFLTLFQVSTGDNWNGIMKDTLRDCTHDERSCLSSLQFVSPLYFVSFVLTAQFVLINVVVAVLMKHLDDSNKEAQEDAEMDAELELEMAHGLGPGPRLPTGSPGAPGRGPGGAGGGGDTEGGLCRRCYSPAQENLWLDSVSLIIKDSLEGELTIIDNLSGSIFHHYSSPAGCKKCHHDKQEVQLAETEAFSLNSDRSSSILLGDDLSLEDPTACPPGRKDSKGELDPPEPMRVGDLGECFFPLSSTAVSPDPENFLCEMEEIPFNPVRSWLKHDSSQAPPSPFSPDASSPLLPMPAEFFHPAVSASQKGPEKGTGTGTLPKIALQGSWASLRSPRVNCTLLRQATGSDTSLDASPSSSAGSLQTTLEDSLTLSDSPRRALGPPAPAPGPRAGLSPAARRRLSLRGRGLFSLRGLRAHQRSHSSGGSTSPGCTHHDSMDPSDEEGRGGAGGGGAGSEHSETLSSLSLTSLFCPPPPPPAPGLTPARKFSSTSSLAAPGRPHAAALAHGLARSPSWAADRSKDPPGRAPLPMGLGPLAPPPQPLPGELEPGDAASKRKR", "assay": "whole-cell patch clamp, transiently transfected tsA-201 cells, % inhibition at […]", "format": "cell-based", "settings": "tsA201, read-out: % inhibition at 10 μM"}, "Cav3.1": {"target": "Cav3.1 (Homo sapiens, UniProt O43497)", "sequence (O43497 whole entry)": "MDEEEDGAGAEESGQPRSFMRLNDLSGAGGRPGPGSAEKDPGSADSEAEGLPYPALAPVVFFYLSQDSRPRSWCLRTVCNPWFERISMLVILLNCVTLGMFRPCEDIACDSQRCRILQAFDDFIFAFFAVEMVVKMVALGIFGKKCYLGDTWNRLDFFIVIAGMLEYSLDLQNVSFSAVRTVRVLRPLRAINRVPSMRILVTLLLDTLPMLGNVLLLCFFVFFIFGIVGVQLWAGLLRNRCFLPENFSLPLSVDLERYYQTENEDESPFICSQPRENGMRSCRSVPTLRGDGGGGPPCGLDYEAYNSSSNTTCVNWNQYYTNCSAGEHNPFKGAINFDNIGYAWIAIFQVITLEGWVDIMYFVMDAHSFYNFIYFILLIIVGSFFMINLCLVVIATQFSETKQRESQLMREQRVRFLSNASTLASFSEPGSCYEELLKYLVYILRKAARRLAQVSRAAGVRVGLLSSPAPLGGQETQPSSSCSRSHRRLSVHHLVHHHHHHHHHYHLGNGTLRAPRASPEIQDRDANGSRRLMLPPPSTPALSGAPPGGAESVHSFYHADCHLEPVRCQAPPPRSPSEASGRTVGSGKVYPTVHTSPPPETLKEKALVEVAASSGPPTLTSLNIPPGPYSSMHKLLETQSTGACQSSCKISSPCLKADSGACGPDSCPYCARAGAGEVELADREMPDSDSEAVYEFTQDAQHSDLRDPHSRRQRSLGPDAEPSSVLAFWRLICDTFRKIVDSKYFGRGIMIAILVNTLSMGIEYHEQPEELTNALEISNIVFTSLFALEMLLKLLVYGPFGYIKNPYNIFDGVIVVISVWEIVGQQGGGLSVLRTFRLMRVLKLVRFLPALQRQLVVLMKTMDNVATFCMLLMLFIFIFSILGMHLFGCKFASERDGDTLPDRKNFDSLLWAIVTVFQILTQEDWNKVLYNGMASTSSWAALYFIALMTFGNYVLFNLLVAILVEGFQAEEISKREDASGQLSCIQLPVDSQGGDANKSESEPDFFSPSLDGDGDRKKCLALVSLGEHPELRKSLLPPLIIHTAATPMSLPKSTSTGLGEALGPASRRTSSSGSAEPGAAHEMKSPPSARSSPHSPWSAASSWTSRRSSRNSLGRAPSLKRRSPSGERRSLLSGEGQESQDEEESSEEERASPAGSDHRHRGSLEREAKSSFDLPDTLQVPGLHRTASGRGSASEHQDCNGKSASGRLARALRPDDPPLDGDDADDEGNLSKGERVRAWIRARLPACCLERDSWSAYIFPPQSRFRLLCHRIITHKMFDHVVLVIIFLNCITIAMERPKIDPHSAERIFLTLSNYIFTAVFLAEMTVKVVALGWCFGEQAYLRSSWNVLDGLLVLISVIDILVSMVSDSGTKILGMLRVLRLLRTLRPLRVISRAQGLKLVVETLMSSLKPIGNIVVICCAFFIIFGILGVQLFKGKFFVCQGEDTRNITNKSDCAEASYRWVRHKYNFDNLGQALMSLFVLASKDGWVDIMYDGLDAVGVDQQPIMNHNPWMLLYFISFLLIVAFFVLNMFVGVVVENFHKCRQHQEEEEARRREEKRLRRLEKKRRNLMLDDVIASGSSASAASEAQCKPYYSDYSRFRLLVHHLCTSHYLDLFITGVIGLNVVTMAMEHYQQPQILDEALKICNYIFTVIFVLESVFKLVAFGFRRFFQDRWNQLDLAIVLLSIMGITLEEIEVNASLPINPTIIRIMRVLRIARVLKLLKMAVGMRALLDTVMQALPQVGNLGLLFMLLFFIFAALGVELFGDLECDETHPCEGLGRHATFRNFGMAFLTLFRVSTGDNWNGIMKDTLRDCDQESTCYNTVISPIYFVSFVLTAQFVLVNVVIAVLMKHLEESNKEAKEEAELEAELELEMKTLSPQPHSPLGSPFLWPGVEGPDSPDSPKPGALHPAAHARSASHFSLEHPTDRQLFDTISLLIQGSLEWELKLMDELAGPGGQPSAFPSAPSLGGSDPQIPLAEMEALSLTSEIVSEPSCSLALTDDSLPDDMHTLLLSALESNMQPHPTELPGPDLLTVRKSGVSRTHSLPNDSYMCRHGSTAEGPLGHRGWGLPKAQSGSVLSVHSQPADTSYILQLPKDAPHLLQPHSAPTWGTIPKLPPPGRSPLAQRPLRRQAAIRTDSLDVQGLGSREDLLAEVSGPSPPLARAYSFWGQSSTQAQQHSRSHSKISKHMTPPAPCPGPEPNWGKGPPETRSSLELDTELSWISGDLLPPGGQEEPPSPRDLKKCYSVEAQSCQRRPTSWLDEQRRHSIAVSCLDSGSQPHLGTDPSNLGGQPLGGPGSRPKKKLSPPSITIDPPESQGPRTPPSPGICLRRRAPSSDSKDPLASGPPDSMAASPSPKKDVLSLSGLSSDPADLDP", "assay": "whole-cell patch clamp, transiently transfected tsA-201 cells, % inhibition at […]", "format": "cell-based", "settings": "tsA201, read-out: % inhibition at 10 μM"}}}
{"compound": "COc1ccccc1-c1no[n+]([O-])c1CN1CCN(C(c2ccc(F)cc2)c2ccc(F)cc2)CC1", "note": "[10e, 3-((4-(bis(4-fluorophenyl)methyl)piperazin-1-yl)methyl)-4-(2-methoxyphenyl)-1,2,5-oxadiazole 2-oxide]", "values": [{"measurement": "inhibition at 10 µM", "setting": "Cav3.3", "value": "88.4 ± 4.08", "unit": "%"}, {"measurement": "inhibition at 10 µM", "setting": "Cav3.1", "value": "93.3 ± 2.78", "unit": "%"}]}
